Assays:
[1] = Example 5 seven-day study with flavored Formulation 9: food consumption and body weight; assay type: in vivo, Beagle dogs; details: for more food consumed, Day 7 compared with Day −1: oral syringe, Formulation 9
Description: (§1) In order to further refine the dosing regimen that would provide an appropriate blood profile of capromorelin and desired results from the perspective of increased food intake and weight gain, an additional series of experiments were conducted. In these experiments, twenty-four adult (male and female) Beagle dogs weighing approximately 9 to 13 kilograms were randomly divided into four groups. Group 1 received a placebo formulation, without any active compound, two times per day; Group 2 received a composition comprising 3 mg/kg of body weight of capromorelin one time per day; Group 3 received a composition comprising 4.5 mg/kg of body weight of capromorelin one time per day; and Group 4 received a composition comprising 3 mg/kg of body weight of capromorelin two times per day.
(§2) In particular, on the first day of dosing, Day 1, through the last day of dosing, Day 7, the compositions were orally administered (i.e., using a syringe) to the animals in a flavored formulation of the following composition: […]
(§3) In these experiments, the animals were orally administered the flavored formulation at approximately 8:00 AM and, for Group 4 only, again at 6:00 PM. The animals were fed at 10:00 AM beginning seven days prior to Day 1 and continuing for the duration of the study. The animals were offered twice the normal amount of food. Approximately two hours after the food offering, the remainder was removed and weighed to assess food intake. This restricted feeding regime was started at Day −7 to allow the animals to transition to a normal feed intake before the study was initiated. Food consumption was calculated and recorded on Days −7 through Day 7. Baseline food consumption was calculated for each individual dog as the average number of grams of food consumed on Days −3, −2, and −1. The study period food consumption was calculated for each individual dog as the average of Days 1 through 7. Body weights were collected on Days −1, 3, and 7. Blood was collected for measurements of capromorelin, growth hormone, cortisol, and IGF-1 concentrations on Days 1, 4, and 7 at about 15 minutes pre-administration, immediately prior to dosing (0 minutes), 30, 45, 60, 90, 120, 240, 360, and/or 480 minutes post dosing via the jugular or other accessible vessel. As reflected by the data in FIGS. 61-74, the animals' response to the capromorelin-containing composition is largely in accord with the results discussed above.

[2] = Example 5: capromorelin concentration in serum; assay type: in vivo, Beagle dogs
Description: as §1, §2
as §3, with “Blood was collected for measurements of capromorelin, growth hormone, cortisol, and IGF-1 concentrations on Days 1, 4, and 7 at about 15 minutes pre-administration, immediately prior to dosing (0 minutes), 30, 45, 60, 90, 120, 240, 360, and/or 480 minutes post dosing via the jugular or other accessible vessel. As reflected by the data in FIGS. 61-74, the animals' response to the capromorelin-containing composition is largely in accord with the results discussed above.” left out

[3] = tested on: insulin-like growth factor 1 (IGF-1); assay: Example 1: serum IGF-1 concentration; assay type: in vivo, Beagle dogs
Description: (§4) A controlled, seven-day study was performed to assess the impact of different capromorelin-dosing regimens on the production of insulin-like growth factor 1 (hereinafter “IGF-1”), growth hormone (hereinafter “GH”), and cortisol. The different capromorelin-dosing regimens were also assessed for the impact on food intake and changes in body mass.
(§5) Eighteen adult non-naïve Beagle dogs (nine males and nine females) were divided into one of three treatment groups. Each of the three treatment groups included three males and three females. Group A, which was the control group, was dosed twice per day, via oral gavage, with a vehicle (deionized water alone) and was used as a baseline data point for comparison against the active treatment regimens. Group B comprised an active treatment group that received two treatments per day, via oral gavage, with a capromorelin-containing composition with a concentration of 3 mg/kg capromorelin per treatment. Finally, Group C comprised an active treatment group that received one treatment per day, via oral gavage, with a capromorelin-containing composition with a concentration of 6 mg/kg capromorelin per treatment.
During the ten day study period, on an at least once-daily basis, each of the dogs was monitored for clinical observations, mortality, morbidity, body mass, and food consumption. […]

growth hormone = assay: Example 5: serum growth hormone; assay type: in vivo, Beagle dogs; details: Groups 2-4; mitigated by Day 4, further reduced by Day 7
Description: as §1, with “day. […]” for “day.”
In these experiments, the animals were orally administered the flavored formulation at approximately 8:00 AM and, for Group 4 only, again at 6:00 PM. […] Food consumption was calculated and recorded on Days −7 through Day 7. Baseline food consumption was calculated for each individual dog as the average number of grams of food consumed on Days −3, −2, and −1. The study period food consumption was calculated for each individual dog as the average of Days 1 through 7. […]

[4] = Example 1: capromorelin concentration in serum; assay type: in vivo
Description: as §4, §5
(§6) During the ten day study period, on an at least once-daily basis, each of the dogs was monitored for clinical observations, mortality, morbidity, body mass, and food consumption. Serum samples were taken to measure capromorelin concentration, GH concentration, IGF-1 concentration, and cortisol concentration. Serum samples were taken on days 1, 2, 4, and 7 at −15 minutes (pre-dose), immediately prior to dosing (0 minutes) and 30, 45, 60, 90, 120, 240, 360, and/or 480 minutes post dosing. Additional blood samples were taken at 8 AM on Day 10 of the study to assess long-term impact of the active treatments.

[5] = Example 4 seven-day study once vs twice daily 3 mg/kg: food consumption and body weight; assay type: in vivo, Beagle dogs
Description: A controlled, seven-day study was performed to assess the impact of different capromorelin-dosing regimens on the production of IGF-1, GH, and cortisol. The different capromorelin-dosing regimens were also assessed for the impact on food intake and changes in body mass.
[…] were divided into one of three treatment groups, with one negative control group and two active treatment groups. Each of the three treatment groups included three males and three females. The first group received a placebo formulation (i.e., deionized water) twice per day, via oral gavage. The second group received a once-daily dose of the capromorelin composition at a concentration of 3 mg/kg, via oral gavage. The third group received a twice-daily dose of the capromorelin composition at a concentration of 3 mg/kg, via oral gavage.
as §6, with “moribundity,” for “morbidity,”, “mass, acceptability/palatability,” for “mass,”, “Additional blood samples were taken at 8 AM on Day 10 of the study to assess long-term impact of the active treatments.” left out

[6] = Days 1 and 7, 3 mg/kg twice daily or 6 mg/kg once daily oral gavage

For `CN1N=C2CCN(C(=O)[C@@H](COCc3ccccc3)NC(=O)C(C)(C)N)C[C@@]2(Cc2ccccc2)C1=O.O=C(O)C(O)C(O)C(=O)O` [capromorelin], the “Comparison of Weight on Day −1 to Weight on Day 7 (X ± SD, %)” value (“Comparison of Weight … (X ± SD, %)” for short) ([1]; Group 2, 3 mg/kg 1x per day) was 4.52 ± 1.67%, the “more food consumed, Day 7 compared with Day −1” value ([1]; Group 2, 3 mg/kg one time per day) was 42.7% and the “Comparison of Weight … (X ± SD, %)” value ([1]; Group 3, 4.5 mg/kg 1x per day) was 3.78 ± 2.93%. For the same molecule, the “more food consumed, Day 7 compared with Day −1” value ([1]; Group 3, 4.5 mg/kg one time per day) was 34.5%, the “Comparison of Weight … (X ± SD, %)” value ([1]; Group 4, 3 mg/kg 2x per day) was 4.17 ± 1.35% and the “more food consumed, Day 7 compared with Day −1” value ([1]; Group 4, 3 mg/kg two times per day) was 31.5%. For the same molecule, the “serum capromorelin by 8 hours” value ([2]; Days 1 and 7, Groups 2-4) was “back to baseline levels”, the “time post administration of initial spike of serum capromorelin” value ([2]; Days 1 and 7, Groups 2-4) was 30 min and the capromorelin accumulation ([2]; seven days of dosing) was “no evidence of capromorelin accumulation”. For the same molecule, the “serum IGF-1 levels versus deionized water three days after terminating treatment” value ([3]; Day 10) was “not significantly different”, the “serum IGF-1 levels relative to deionized water” value ([3]; days 2, 4 and 7 of treatment, both doses) was “remained consistently higher” and the “growth hormone in the serum” value (growth hormone) was “increase in growth hormone in the serum on Day 1”. For the same molecule, the “serum capromorelin by eight hours after dosing (480 minutes)” value [4, 6] was “decreased to near undetectable levels”, the “time after dosing at which serum capromorelin concentrations spike” value [4, 6] was “approximately 0.5 h” and the “serum capromorelin concentration, 6 mg/kg dose relative to twice-daily 3 mg/kg dose” value ([4]; oral gavage) was “about 2.3 fold”. For the same molecule, the “weight loss over the course of the experiment” value ([5]; once-daily 3 mg/kg oral gavage) was “did not experience weight loss or did not experience as great a weight loss as the negative control” and the “average more food consumed daily relative to the negative control” value ([5]; once-daily and twice-daily 3 mg/kg oral gavage, 7 days) was “approximately 34%”.

Reference: patent US11090292B2, “Compositions and methods of use of an inappetance-controlling compound” (Aratana Therapeutics, Inc., priority 2012, dated 2021)
